The source made the active and inactive calls. No cut-off for these calls is given here.
What was measured:
[1] = test system: NCI/ADR-RES; assay: Potentiation of paclitaxel-induced cytotoxicity against P-gp expressing human NCI/ADR-RES cells assessed as reduction of paclitaxel CC50 at 10 uM after 3 days by MTT assay; format: functional
[2] = molecular target: T1, ATP-dependent translocase ABCB1 (Homo sapiens, UniProt P08183); assay: Inhibition of P-glycoprotein-mediated drug efflux in human NCI/ADR-RES cells assessed as calcein AM accumulation after 30 mins by fluorescence spectrophotometry; format: cell-based; conditions: 0.5 h
[3] = test system: NCI/ADR-RES; assay: Potentiation of vinblastine-induced cytotoxicity against P-gp expressing human NCI/ADR-RES cells assessed as reduction of vinblastine CC50 at 10 uM after 3 days by MTT assay; format: functional
[4] = molecular target: T1, ATP-dependent translocase ABCB1; assay: Inhibition of P-glycoprotein-mediated drug efflux in human NCI/ADR-RES cells assessed as paclitaxel accumulation after 30 mins by HPLC; format: cell-based; conditions: 0.5 h
[5] = test system: NCI/ADR-RES; assay: Cytotoxicity against human NCI/ADR-RES cells at 10 uM after 3 days by MTT assay; format: functional, cell-based

T1 sequence (P08183 whole entry): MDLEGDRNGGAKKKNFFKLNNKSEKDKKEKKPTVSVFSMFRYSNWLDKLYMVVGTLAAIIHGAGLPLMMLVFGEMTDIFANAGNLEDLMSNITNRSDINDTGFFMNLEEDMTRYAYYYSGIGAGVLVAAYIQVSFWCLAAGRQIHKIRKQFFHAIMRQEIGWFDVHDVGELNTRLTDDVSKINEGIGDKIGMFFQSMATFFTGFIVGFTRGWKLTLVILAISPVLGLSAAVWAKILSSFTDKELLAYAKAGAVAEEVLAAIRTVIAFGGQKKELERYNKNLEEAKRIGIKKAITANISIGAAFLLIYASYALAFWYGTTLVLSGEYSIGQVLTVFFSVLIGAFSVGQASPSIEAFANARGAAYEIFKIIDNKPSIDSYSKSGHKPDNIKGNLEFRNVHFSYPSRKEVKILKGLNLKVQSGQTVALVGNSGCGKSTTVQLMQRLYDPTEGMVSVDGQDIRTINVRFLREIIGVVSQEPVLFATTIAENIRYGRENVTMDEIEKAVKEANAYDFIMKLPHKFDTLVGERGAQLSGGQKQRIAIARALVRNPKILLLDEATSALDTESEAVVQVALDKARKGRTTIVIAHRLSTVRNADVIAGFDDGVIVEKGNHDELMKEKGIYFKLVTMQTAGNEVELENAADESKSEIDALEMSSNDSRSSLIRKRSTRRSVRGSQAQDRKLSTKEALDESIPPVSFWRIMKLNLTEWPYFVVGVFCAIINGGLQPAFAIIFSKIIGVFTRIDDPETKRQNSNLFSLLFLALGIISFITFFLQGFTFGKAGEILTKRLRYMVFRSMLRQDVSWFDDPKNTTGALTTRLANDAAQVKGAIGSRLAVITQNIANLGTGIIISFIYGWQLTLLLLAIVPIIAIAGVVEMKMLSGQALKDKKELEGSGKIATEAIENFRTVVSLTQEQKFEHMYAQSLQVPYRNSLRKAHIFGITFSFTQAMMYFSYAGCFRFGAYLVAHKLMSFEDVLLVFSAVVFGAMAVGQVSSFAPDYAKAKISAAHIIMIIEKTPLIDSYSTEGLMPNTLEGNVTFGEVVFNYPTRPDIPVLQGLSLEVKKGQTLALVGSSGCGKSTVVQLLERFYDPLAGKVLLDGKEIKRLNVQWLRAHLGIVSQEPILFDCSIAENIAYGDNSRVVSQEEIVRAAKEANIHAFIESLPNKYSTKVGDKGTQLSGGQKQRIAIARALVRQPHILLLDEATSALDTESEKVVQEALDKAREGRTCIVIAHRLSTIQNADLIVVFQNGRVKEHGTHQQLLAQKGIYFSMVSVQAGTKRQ

inhibition (INH) [2]: Dose-dependent effect
inhibition (INH) [4]: Dose-dependent effect
SMILES: COc1c(O)cc2oc(-c3ccccc3)cc(=O)c2c1O [OROXYLIN A]
fold change (FC) [1]: 5
fold change (FC) [3]: 5
Activity [5]: inactive
